Earlier results in US6387904B2, “Method of treating glaucoma and ischemic retinopathy” (Pfizer INC, priority 1998, dated 2002).
Counter-ions that a name gives are not always drawn.

Tests used:
DA reuptake = target: T1, DA reuptake (Homo sapiens, UniProt Q01959); settings: neurotransmitter uptake inhibition; mean ± spread (n)
T1 construct: host or cells: central nervous system tissue

Norpinephrine reuptake = Norpinephrine reuptake (Homo sapiens, UniProt P23975); settings: neurotransmitter uptake inhibition; mean ± spread (n)
5-HT1A = target: T2, 5-HT1A (Homo sapiens, UniProt P08908); settings: ligand [3H]-80H-DPAT; central nervous system tissue; mean ± spread (n)
T2 construct: host or cells: central nervous system tissue
T2 sequence (P08908 1-422): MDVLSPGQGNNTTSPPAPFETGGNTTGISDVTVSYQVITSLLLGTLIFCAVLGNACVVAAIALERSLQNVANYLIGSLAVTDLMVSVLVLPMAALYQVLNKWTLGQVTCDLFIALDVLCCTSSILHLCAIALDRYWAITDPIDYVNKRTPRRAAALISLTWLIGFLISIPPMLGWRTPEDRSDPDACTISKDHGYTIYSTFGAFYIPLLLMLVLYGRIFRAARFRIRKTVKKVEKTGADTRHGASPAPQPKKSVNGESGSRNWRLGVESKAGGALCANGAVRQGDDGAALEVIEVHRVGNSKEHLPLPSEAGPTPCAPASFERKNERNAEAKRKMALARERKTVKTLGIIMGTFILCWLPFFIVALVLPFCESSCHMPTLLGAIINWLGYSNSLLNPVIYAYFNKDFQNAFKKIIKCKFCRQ

Norpinephrine reuptake, sequence (P23975 whole entry): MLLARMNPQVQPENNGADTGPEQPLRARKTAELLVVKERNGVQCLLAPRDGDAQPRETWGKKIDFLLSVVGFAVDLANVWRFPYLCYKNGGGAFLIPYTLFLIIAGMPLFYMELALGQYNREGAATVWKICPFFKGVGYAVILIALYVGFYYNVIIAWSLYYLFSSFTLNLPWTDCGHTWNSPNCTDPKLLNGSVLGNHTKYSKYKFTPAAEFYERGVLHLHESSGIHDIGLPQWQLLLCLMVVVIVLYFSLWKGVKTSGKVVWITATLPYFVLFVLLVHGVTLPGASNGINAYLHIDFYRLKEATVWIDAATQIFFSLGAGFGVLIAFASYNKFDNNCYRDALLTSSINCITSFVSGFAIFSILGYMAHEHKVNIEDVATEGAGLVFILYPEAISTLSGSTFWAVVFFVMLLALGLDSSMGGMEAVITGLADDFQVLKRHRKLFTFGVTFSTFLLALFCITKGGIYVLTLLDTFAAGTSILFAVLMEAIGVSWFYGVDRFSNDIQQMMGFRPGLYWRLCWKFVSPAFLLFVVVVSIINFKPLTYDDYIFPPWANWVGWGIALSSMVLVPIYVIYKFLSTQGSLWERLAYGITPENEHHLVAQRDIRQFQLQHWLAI
T1 sequence (Q01959 whole entry): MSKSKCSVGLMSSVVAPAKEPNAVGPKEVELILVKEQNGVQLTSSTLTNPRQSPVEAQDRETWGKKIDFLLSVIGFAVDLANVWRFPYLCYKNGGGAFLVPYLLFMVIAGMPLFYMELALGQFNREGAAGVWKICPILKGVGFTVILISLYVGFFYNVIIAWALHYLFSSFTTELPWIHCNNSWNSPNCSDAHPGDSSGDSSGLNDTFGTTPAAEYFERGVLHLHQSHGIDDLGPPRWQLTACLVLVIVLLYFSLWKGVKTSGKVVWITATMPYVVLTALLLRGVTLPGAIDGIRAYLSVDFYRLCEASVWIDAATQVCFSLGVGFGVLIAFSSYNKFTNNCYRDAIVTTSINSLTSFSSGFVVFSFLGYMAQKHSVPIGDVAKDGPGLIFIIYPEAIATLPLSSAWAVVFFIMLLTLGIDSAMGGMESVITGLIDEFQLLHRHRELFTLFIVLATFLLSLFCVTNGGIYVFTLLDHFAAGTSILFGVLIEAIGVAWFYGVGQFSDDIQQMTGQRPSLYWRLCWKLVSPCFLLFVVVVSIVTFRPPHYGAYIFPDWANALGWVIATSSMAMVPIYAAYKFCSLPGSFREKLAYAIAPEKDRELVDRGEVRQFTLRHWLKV

For O=C1Cc2cc(CCN3CCN(c4nsc5ccccc45)CC3)c(Cl)cc2N1 [ziprasidone, 5-(2-(4-(1,2-benzisothiazol-3-yl)piperazinyl)ethyl)-6-chlorooxindole hydrochloride], the “pKi Neurotransmiter Reuptake Blockade: DA” value (DA reuptake) is listed as 6.58 ± 0.02 (3), the “pKi Neurotransmiter Reuptake Blockade: Norpinephrine” value (Norpinephrine reuptake) is listed as 7.30 ± 0.01 (4) and the “pKi 5-HT1A” value (5-HT1A) is listed as 8.47 ± 0.05 (4).
